# Paper PMC8863381 (Journal of Enzyme Inhibition and Medicinal Chemistry, 2022)
# Where two headings read alike, the source gives them in different places.
# Legend:
# hCA XII = hCA XII (Homo sapiens, UniProt O43570); test: stopped flow CO2 hydrase assay, hCA XII; format: biochemical; settings: for Selectivity ratio I/XII: KI hCA I / KI hCA XII; for Selectivity ratio II/XII: KI hCA II / KI hCA XII
# [1] = system: MCF-7 breast cancer cell line; test: SRB cell viability assay, MCF-7; format: cell-based, human; settings: for IC50: Homo sapiens, MCF7, 72 h, read-out: IC50 MCF-7; for Selectivity index MCF-7: normal HSF versus MCF-7
# [2] = system: normal human skin fibroblast cell line HSF; test: SRB cell viability assay, HSF normal cells; format: cell-based; settings: 72 h, read-out: IC50 HSF
# A549 lung cancer cells = test: SRB cell viability assay, A549; format: cell-based, human; settings: for IC50: Homo sapiens, A549, 72 h, read-out: IC50 A549; for Selectivity index A549: normal HSF versus A549
# hCA I = hCA I (Homo sapiens, UniProt P00915); test: stopped flow CO2 hydrase assay, hCA I; format: biochemical
# hCA IX = hCA IX (Homo sapiens, UniProt Q16790); test: biochemical; settings: for Selectivity ratio I/IX: KI hCA I / KI hCA IX; for Selectivity ratio II/IX: KI hCA II / KI hCA IX
# hCA II = hCA II (Homo sapiens, UniProt P00918); test: stopped flow CO2 hydrase assay, hCA II; format: biochemical
# [3] = KI hCA XII, 15 min preincubation, mean from 3 different assays
# [4] = Log KI hCA XII (experimental), log of KI in nM, compounds of this paper
# [5] = KI hCA IX, 15 min preincubation, mean from 3 different assays
# [6] = log KI hCA IX (experimental), log of KI in nM, compounds of this paper
# [7] = log of KI in nM, compounds of this paper
# [8] = read-out: KI hCA XII, 15 min preincubation, mean from 3 different assays
# [9] = read-out: KI hCA I, 15 min preincubation, mean from 3 different assays
# [10] = read-out: KI hCA IX, 15 min preincubation, mean from 3 different assays
# [11] = read-out: KI hCA II, 15 min preincubation, mean from 3 different assays
# Sequence of hCA I (P00915 whole entry): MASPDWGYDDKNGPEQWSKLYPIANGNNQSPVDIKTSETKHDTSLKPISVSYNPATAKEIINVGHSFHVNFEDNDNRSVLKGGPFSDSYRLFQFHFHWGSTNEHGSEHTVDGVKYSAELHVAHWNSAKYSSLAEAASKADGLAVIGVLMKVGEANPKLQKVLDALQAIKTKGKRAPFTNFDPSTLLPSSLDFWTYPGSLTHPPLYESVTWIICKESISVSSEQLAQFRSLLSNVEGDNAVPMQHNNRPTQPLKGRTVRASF
# Sequence of hCA XII (O43570 25-354): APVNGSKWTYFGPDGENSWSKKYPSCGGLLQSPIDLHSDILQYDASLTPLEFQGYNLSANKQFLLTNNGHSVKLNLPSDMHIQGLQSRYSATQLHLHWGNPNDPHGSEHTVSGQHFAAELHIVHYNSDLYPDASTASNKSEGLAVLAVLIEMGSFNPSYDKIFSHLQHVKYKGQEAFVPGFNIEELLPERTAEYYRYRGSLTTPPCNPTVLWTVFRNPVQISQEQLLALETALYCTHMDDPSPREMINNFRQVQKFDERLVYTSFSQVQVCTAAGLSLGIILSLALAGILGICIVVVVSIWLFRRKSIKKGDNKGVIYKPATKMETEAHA
Compound,Selectivity ratio I/XII (hCA XII),Selectivity ratio II/XII (hCA XII),Ki (hCA XII; [3]) [nM],Ki (hCA XII; [4]) [nM],IC50 [1] [nM],IC50 (A549 lung cancer cells) [nM],Ki (hCA I) [nM],Selectivity ratio I/IX (hCA IX),Selectivity ratio II/IX (hCA IX),Ki (hCA IX; [5]) [nM],Ki (hCA IX; [6]) [nM],Ki (hCA II) [nM],IC50 [2] [nM],further results
"NS(=O)(=O)c1ccc(NN=C2C(=O)N(CC(=O)Nc3ccc(Br)cc3)c3ccccc32)cc1 [3c, N-(4-Bromophenyl)-2–(2-oxo-3–(2-(4-sulfamoylphenyl)hydrazono)indolin-1-yl)acetamide]",1.245,0.092,612,612,> 100000,5900,762,13.392,0.991,56.9,57,56.4,> 100000,Selectivity index A549 (A549 lung cancer cells): > 16.94
"COc1cccc2c1C(=O)c1c(O)c3c(c(O)c1C2=O)C[C@@](O)(C(=O)CO)C[C@@H]3O[C@H]1C[C@H](N)[C@H](O)[C@H](C)O1 [Doxorubicin, reference compound]",,,,,630,190,,,,,,,220,Selectivity index MCF-7 [1]: 0.349; Selectivity index A549 (A549 lung cancer cells): 1.157
"Cc1ccc(NC(=O)CN2C(=O)C(=NNc3ccc(S(N)(=O)=O)cc3)c3ccccc32)cc1 [3d, 2–(2-Oxo-3–(2-(4-sulfamoylphenyl)hydrazono)indolin-1-yl)-N-p-tolylacetamide]",0.923,0.112,710,710,869,5120,656,7.672,0.934,85.5,86.1,79.9,1460,Selectivity index MCF-7 [1]: 1.68; Selectivity index A549 (A549 lung cancer cells): 0.28
"NS(=O)(=O)c1ccc(NC(=O)CN2C(=O)C(=O)c3ccccc32)cc1 [2h, 2–(2,3-Dioxoindolin-1-yl)-N-(4-sulfamoylphenyl)acetamide]",5.701,0.742,7.91,8,> 100000,> 100000,45.1,0.673,0.087,67,67,5.87,> 100000,cytotoxic activity against MCF-7 [1]: no cytotoxic activity; cytotoxic activity against A549 (A549 lung cancer cells): no cytotoxic activity
"NS(=O)(=O)c1ccc(NN=C2C(=O)N(CC(=O)Nc3ccc(Cl)cc3)c3ccccc32)cc1 [3b, N-(4-Chlorophenyl)-2–(2-oxo-3–(2-(4-sulfamoylphenyl)hydrazono)indolin-1-yl)acetamide]",1.881,0.953,474,474,,,892,7.252,3.674,123,123,452,,
"NS(=O)(=O)c1ccc(NN=C2C(=O)N(CC(=O)Nc3ccccc3)c3ccccc32)cc1 [3a, 2–(2-Oxo-3–(2-(4-sulfamoylphenyl)hydrazono)indolin-1-yl)-N-phenylacetamide]",1.088,0.071,3650,3650,,,3970,18.384,1.203,216,216,260,,

# Second part, led by results:
Selectivity ratio I/XII (hCA XII),Selectivity ratio II/XII (hCA XII),Ki (hCA XII; [3]) [nM],Ki (hCA XII; [4]) [nM],IC50 [1] [nM],IC50 (A549 lung cancer cells) [nM],Ki (hCA I) [nM],Selectivity ratio I/IX (hCA IX),Selectivity ratio II/IX (hCA IX),Ki (hCA IX; [5]) [nM],Ki (hCA IX; [6]) [nM],Ki (hCA II) [nM],Compound,IC50 [2] [nM],further results
1.029,0.320,,,,,,3.596,1.119,,,,N-(3-Bromophenyl)-2–(2-oxo-3–(2-(2–(4-sulfamoylphenylamino)acetyl)hydrazono) indolin-1-yl)acetamide [4c],,Log KI hCA XII (experimental) (hCA XII; [7]): 3.359; Ki (hCA XII; [8]): 2280 nM; Ki (hCA I; [9]): 2350 nM; log KI hCA IX (experimental) (hCA IX; [7]): 2.816; Ki (hCA IX; [10]): 654 nM; Ki (hCA II; [11]): 732 nM
1.412,0.076,,,,,,14.824,0.797,,,,2–(2-Oxo-3–(2-(2–(4-sulfamoylphenylamino)acetyl)hydrazono)indolin-1-yl)-N-m-tolylacetamide [4d],,Log KI hCA XII (experimental) (hCA XII; [7]): 3.78; Ki (hCA XII; [8]): 6020 nM; Ki (hCA I; [9]): 8510 nM; log KI hCA IX (experimental) (hCA IX; [7]): 2.759; Ki (hCA IX; [10]): 574 nM; Ki (hCA II; [11]): 458 nM
1.670,0.909,5050,5050,,,8430,2.149,1.169,3920,3930,4590,"NS(=O)(=O)c1ccc(NCC(=O)NN=C2C(=O)N(CC(=O)Nc3ccc(Cl)cc3)c3ccccc32)cc1 [4b, N-(4-Chlorophenyl)-2–(2-oxo-3–(2-(2–(4-sulfamoylphenylamino)acetyl)hydrazono)indolin-1-yl)acetamide]",,
5.823,3.937,754,753,,,4390,0.819,0.554,5360,5360,2970,"NS(=O)(=O)c1ccc(NCC(=O)NN=C2C(=O)N(CC(=O)Nc3ccccc3Cl)c3ccccc32)cc1 [4f, N-(2-Chlorophenyl)-2–(2-oxo-3–(2-(2–(4-sulfamoylphenylamino)acetyl)hydrazono)indolin-1-yl)acetamide]",,
6.122,4.416,,,,,,2.957,2.133,,,,N-(3-Methoxyphenyl)-2–(2-oxo-3–(2-(2–(4-sulfamoylphenylamino)acetyl) hydrazono)indolin-1-yl)acetamide [4e],,Log KI hCA XII (experimental) (hCA XII; [7]): 3.182; Ki (hCA XII; [8]): 1520 nM; Ki (hCA I; [9]): 9320 nM; log KI hCA IX (experimental) (hCA IX; [7]): 3.498; Ki (hCA IX; [10]): 3150 nM; Ki (hCA II; [11]): 6720 nM
0.683,0.118,6790,,,,4640,5.741,0.995,808,807,804,"NS(=O)(=O)c1ccc(NCC(=O)NN=C2C(=O)N(CC(=O)Nc3ccccc3)c3ccccc32)cc1 [4a, 2–(2-Oxo-3–(2-(2–(4-sulfamoylphenylamino)acetyl)hydrazono)indolin-1-yl)-N-phenylacetamide]",,
7.221,2.373,843,843,,,6090,0.829,0.272,7340,7330,2000,"NS(=O)(=O)c1ccc(NCC(=O)NN=C2C(=O)N(CC(=O)Nc3ccccc3Br)c3ccccc32)cc1 [4g, N-(2-Bromophenyl)-2–(2-oxo-3–(2-(2–(4-sulfamoylphenylamino)acetyl)hydrazono)indolin-1-yl)acetamide]",,
